Results as given in publication PMC8406298, “Discovery of Fungus-Specific Targets and Inhibitors Using Chemical Phenotyping of Pathogenic Spore Germination” (mBio, 2021).

Legend:
[1] = test system: Cryptococcus yeast (CHY3833 and CHY3836); assay: Yeast replication secondary screen (OD600); format: cell-based, Cryptococcus neoformans serotype D (deneoformans); details: 10 μM, 12 h at 30°C
Method: (ii) Yeast replication. CHY3833 and CHY3836 were each grown in YPD liquid overnight at 30°C to saturation and then resuspended in 0.5× YPD at an OD600 of 0.005. Strains were aliquoted into 384-well plates with inhibitors and grown for 12 h at 30°C at […] before OD600 readings were taken. Compounds that caused a >10% decrease in growth were considered yeast growth inhibitors.

[2] = test system: normal human dermal fibroblasts (NHDF) cells; assay: Fibroblast cytotoxicity (CellTiter-Glo); format: cell-based; details: 10 µM
Method: PrimaPure normal human dermal fibroblasts (NHDF) cells (Genlatis PH10605A) were cultured and passaged in fibroblast growth medium (Genlatis PM116500) according to the manufacturer’s protocol. NHDF cells (1 × 10^3 per well) were plated in a 384-well plate in cell culture medium. The cells were incubated with each compound of interest at 10 μM concentration for 72 h at 37°C and 5% CO2. Following treatment, CellTiter-Glo (Promega) reagent was used to assay ATP-dependent luminescence and thus provide a measure of cell viability. […] For cytotoxicity dose-response curves (Fig. 4C and Fig. 5C), compounds were titrated from 80 μM to 0.5 μM in duplicates.

| Compound | Yeast Inhibition: % Inhibition [1] [%] | Cytotoxicity: Relative Cell Viability (% of Negative Control) [2] |
| --- | --- | --- |
| CC(C)(C)c1ccc(-c2csc(N)n2)cc1 [compound 673711] | 94.3 | 86.3 % of Negative Control |
| O=C(CSc1ccc(F)cc1)N1CCC(c2ccsc2)CC1 [compound 71786989] | 16.0 | 102.2 % of Negative Control |
| S=C1SCN(Cc2ccccn2)CN1Cc1ccco1 [compound 3242906] | 100.6 | 103.5 % of Negative Control |
| O=C(c1ccc(OC(F)(F)F)cc1)N(Cc1ccoc1)Cc1cccs1 [compound 71804107] | 7.9 | 94.0 % of Negative Control |
| CCOC(=O)N1CCN(C(c2ccccn2)c2c(-c3ccccc3)n(O)c3ccccc23)CC1 (stereo not drawn) [compound 4081132] | 101.5 | 84.9 % of Negative Control |
| O=C(COc1ccccc1F)N1CCC(Oc2ncccc2Br)CC1 [compound 71799471] | 2.6 | 101.4 % of Negative Control |
| O=C(/C=C/c1ccco1)N1CCCc2ccccc21 [compound 768672] | 37.4 | 109.0 % of Negative Control |
| Cc1ccc(N2C(=O)CC(Sc3ccccc3C(=O)N3CCOCC3)C2=O)cc1 (stereo not drawn) [compound 2951953] | 52.3 | 94.9 % of Negative Control |
| O=C(/C=C/c1cccc(F)c1)c1ccc[nH]1 [compound 7185492] | 99.0 | 40.0 % of Negative Control |
| NC(=O)/C=C/C(=O)Nc1cccc(C(F)(F)F)c1 [compound 707936] | 101.2 | 3.5 % of Negative Control |
| O=C(Nc1cccc(C(F)(F)F)c1)C1=Cc2ccccc2OC1 [compound 1475928] | 77.9 | 58.1 % of Negative Control |
| O=C(c1ccc2cc[nH]c2c1)N1CCCCC(c2ccc(Cl)cc2)C1 (stereo not drawn) [compound 76150266] | -14.0 | 92.9 % of Negative Control |
| Oc1ccc(-c2ccccc2)cc1Br [compound 27297] | 101.8 | 4.7 % of Negative Control |
| CCCCSc1nc2ccc(C)cc2[nH]1 [compound 2129690] | 80.1 | 104.3 % of Negative Control |
| C=CCN(CC=C)CC(O)CN1c2ccccc2Sc2ccccc21 (stereo not drawn) [compound 2896856] | 43.9 | 5.4 % of Negative Control |
| CN(C)CCN(C(=O)c1c[nH]c2ccccc12)c1nc2ccc(OC(F)(F)F)cc2s1.Cl [compound 71782913] | 99.5 | 66.6 % of Negative Control |
| O=C(c1cc(-c2ccco2)on1)N1CCC(c2cccs2)CC1 [compound 71786870] | 39.7 | 90.1 % of Negative Control |
| Cc1n[nH]c(C)c1Br [compound 76937] | 22.1 | 59.9 % of Negative Control |
| Clc1ccc(OCCSCc2nc3ccccc3[nH]2)cc1 [compound 1589789] | 79.6 | 74.0 % of Negative Control |
| O=c1[nH]sc2ccccc12 [compound 17520] | 101.5 | 3.3 % of Negative Control |
| CCCC(CCC)C(=O)N1CCN(c2ccc(-c3cccnc3)nn2)CC1 [compound 25283686] | 2.8 | 103.7 % of Negative Control |
